The target of experiment [1] is T1, rat liver mitochondrial low Km ALDH (Rattus norvegicus, UniProt P11884).
T1 construct: Mitochondria were isolated from the liver of untreated rats; from tissue; host or cells: liver mitochondria of male Sprague-Dawley derived rats
T1 sequence (P11884 20-519): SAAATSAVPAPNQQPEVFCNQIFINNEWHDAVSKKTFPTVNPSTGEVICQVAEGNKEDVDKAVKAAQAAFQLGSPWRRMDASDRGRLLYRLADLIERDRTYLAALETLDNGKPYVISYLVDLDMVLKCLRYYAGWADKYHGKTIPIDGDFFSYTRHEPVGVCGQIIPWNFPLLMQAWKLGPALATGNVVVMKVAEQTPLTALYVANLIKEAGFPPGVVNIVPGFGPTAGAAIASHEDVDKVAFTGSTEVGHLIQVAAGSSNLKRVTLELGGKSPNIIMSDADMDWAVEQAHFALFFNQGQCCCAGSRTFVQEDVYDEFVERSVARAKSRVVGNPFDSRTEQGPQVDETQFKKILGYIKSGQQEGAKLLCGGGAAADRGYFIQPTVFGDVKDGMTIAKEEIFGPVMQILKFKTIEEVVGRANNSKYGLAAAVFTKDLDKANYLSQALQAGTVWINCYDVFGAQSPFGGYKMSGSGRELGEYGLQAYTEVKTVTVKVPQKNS
In words: In vitro inhibition of rat liver mitochondrial low Km ALDH (isolated mitochondria incubation). It is filed as biochemical. How it is done: 1. Drug Concentration. Concentrations of DETC-Me sulfoxide ("DETC-Me SO") studied were 0.2 μM, 2.0 μM, 20 μM and 200 μM. Concentrations of DDTC-Me SO studied were 0.5 μM, 2.5 μM, 10 μM, 25 μM, 50 μM and 100 μM.
2. Animal Liver Preparation. Male Sprague-Dawley derived rats weighing 200-400 g were anesthetized with carbon dioxide and then decapitated. The livers from untreated rats were homogenized in 0.25M sucrose and differential centrifugation carried out to isolate the mitochondrial fraction. The mitochodria were solubilized with sodium deoxycholate, and mitochondrial low Km ALDH activity determined by the method of S.O.C. Tottmar et al., Biochem. J., 135, 577 (1973).
3. In Vitro Incubation. Mitochondria were isolated from the liver of untreated rats as described in section (2) and resuspended in 0.1M phosphate buffer (pH=7.4). Incubations contained 2 mg of mitochondrial protein, to which was added DETC-Me SO or DDTC-Me SO in the concentrations described above. The DETC-Me SO or DDTC-Me SO was dissolved in ethanol and the incubations carried out for one hour. Control incubations contained ethanol alone.
4. Aldehyde Dehydrogenase Analysis. At the end of the incubation, the mitochondria were isolated by centrifugation, resuspended in 0.25M sucrose buffer and solubilized with deoxycholate. Low Km ALDH activity was determined by the method of S.O.C. Tottmar et al., cited above.

The target of experiment [2] is T1, rat liver mitochondrial low Km ALDH. In words: Liver aldehyde dehydrogenase determination in vivo after dosing rats. The note with it: for in vivo ALDH inhibition relative to comparators (in words): versus DETC-Me, disulfiram or other disulfiram metabolites; for ED50: rat, 8 h, read-out: dose required to inhibit 50% of the low Km ALDH. Here is the method: 1. Drug Doses. Doses of DETC-Me SO studied were 1.3 mg/kg, 2.6 mg/kg, 5.2 mg/kg, 10.3 mg/kg and 20.6 mg/kg.
2. Animals. Male Sprague Dawley derived rats weighing 200-400 g were used. The rats were bred from a resident colony maintained in the Animals Care Unit at the University of Kansas. Rats were maintained on a 12-hour light-dark cycle with access to food and water ad lib until the night before an experiment, at which time food was removed. Animals were fasted for 12 hours prior to drug administration.
3. Timing. In these in vivo studies, rats were fasted 12 hours before beginning the experiment. All experiments were carried out in the morning. Rats were treated with the doses of DETC-Me SO or DETC-Me described above, which were dissolved in polyethylene glycol 200. Eight hours later, the rats were anesthetized with carbon dioxide and then decapitated. The liver was quickly removed and the low Km aldehyde dehydrogenase determined. Each data point on FIG. 4 represents an average of four rats. Control rats were treated with […] only, and each control data point also represents an average of four rats.
4. Aldehyde Dehydrogenase Determination. The liver from drug-treated and control rats was homogenized in 0.25M sucrose and differential centrifugation was carried out to isolate the mitochondrial fraction. The mitochondria were solubilized with sodium deoxycholate, and mitochondrial low Km and total (high and low) aldehyde dehydrogenase activity determined by the method of S.O.C. Tottmar et al., cited above.

A short description of experiment [3]: Plasma acetaldehyde determination after ethanol challenge. In kind it is in vivo, rat. The settings on record: male rats. How it is done:
Rats maintained as described in Ex. 4, fasted for 18 hours, were given 10.3 mg/kg of the DETC-Me SO intraperitoneally, dissolved in polyethylene glycol 200 and then challenged eight hours later with a dose of ethanol (1 g/kg; 20% v/v) also administered intraperitoneally. The rats were anesthetized with phenobarbital 30 minutes after alcohol administration and blood was taken by aortic puncture, being drawn into a heparinized syringe. Plasma acetaldehyde was determined by the method of C.O.P. Eriksson et al., Anal. Biochem., 80, 116 (1977). Plasma concentrations were determined based on a standard curve obtained with known concentrations of acetaldehyde. Control rats were treated with 1 ml/kg of polyethylene glycol 200.

Experiment [4] concerns liver mitochondrial low Km ALDH. The note with it: Hart et al., cited from earlier work; for dose at which 50% ALDH inhibition (ID50) occurred: intraperitoneal (IP) administration.
For experiment [5] the test system is unchanged. The settings on record: Hart et al.; cited from earlier work.

Each structure is given as a SMILES string. Where two headings read alike, the source gives them in different places.

As to `CCN(CC)C(=O)[S+](C)[O-]` (stereo not drawn) [DETC-Me SO, S-Methyl-N,N-Diethylthiolcarbamate Sulfoxide], the “in vitro activity as inhibitor of low Km ALDH (in words)” value is “extremely potent inhibitor” in experiment [1] and “active in vitro” in experiment [1] (listed as DETC-Me sulfoxide). Besides, the entries for the “in vivo ALDH inhibition relative to comparators (in words)” value in experiment [2] and in experiment [2] (listed as DETC-Me sulfoxide) were “substantially more potent” and “about twice as effective”, respectively. Moreover, the ED50 in experiment [2] (male rats, intraperitoneal (IP), liver taken eight hours after dosing, FIG. 4) worked out at 3.6 mg/kg. Besides, the plasma acetaldehyde entry in experiment [3] (10.3 mg/kg IP in polyethylene glycol 200, then 1 g/kg ethanol (20% v/v) IP, FIG. 5) is listed as “approximately 900 μM”. Besides, the “effect on plasma acetaldehyde after an ethanol challenge (in words)” value in experiment [3] (10.3 mg/kg IP, 1 g/kg ethanol IP) is on record as “markedly increase plasma acetaldehyde”.

Consider `CCN(CC)C(=S)SC` [DDTC-Me, diethyldithiocarbamate-methyl ester], for which the “dose at which 50% ALDH inhibition (ID50) occurred” value (“dose at which 50% ALDH inhibition” below) in experiment [4] was 15.5 mg/kg.

Regarding `CCN(CC)C(=S)SSC(=S)N(CC)CC` [disulfiram, tetraethylthiuram disulfide], the “dose at which 50% ALDH inhibition” value in experiment [4] is given as 56.2 mg/kg.

Usually inhibition stands for the percentage by which the read-out fell short of the control. With `CCN(CC)C(=O)SC` [DETC-Me, S-Methyl-N,N-Diethylthiolcarbamate], the inhibition at 200 µM in experiment [1] (1 h, read-out: inhibition of rat liver mitochondrial low Km ALDH) amounted to 8%. Also, the “in vitro activity as inhibitor of low Km ALDH (in words)” value in experiment [1] is listed as “not”. Further, the ED50 in experiment [2] (ip) came to 6.5 mg/kg. Also, in experiment [4], the “potency as inhibitor of liver mitochondrial low Km ALDH relative to DDTC-Me, DDTC or disulfiram (in words)” value is “more potent inhibitor” and the “dose at which 50% ALDH inhibition” value is given as 6.5 mg/kg. In experiment [5], the “in vitro inhibition of liver mitochondrial low Km ALDH (in words)” value was “not an effective in vitro inhibitor”.
